Results from ChEMBL document CHEMBL3885861, “Open TG-GATES”.

Organism: Rattus norvegicus
Assay: Open TG-GATES - Regimen: Daily Repeat
Type: toxicity, organism-based, Sprague-Dawley
Parameters: regimen Daily Repeat, gender Male, age 6 weeks
Conditions: in vivo, po, 0 mg/kg, route gavage, dose level Control; for APTT / Bas / Eos / Fbg / Hb / Ht / Lym / MCH / MCHC / MCV / Mono / Neu / PT / Plat / RBC / Ret / WBC: tissue Blood; for KIDNEY_L / KIDNEY_R / KIDNEY_TOTAL: tissue Kidney; for LIVER: tissue Liver; for A/G / ALP / ALT / AST / BUN / CRE / Ca / Cl / DBIL / GLC / IP / K / LDH / Na / PL / RALB / TBIL / TC / TG / TP / gamma-GTP: tissue Plasma

Molecule `CC(S)C(=O)NCC(=O)O` (configuration not stated) [TIOPRONIN] has a TERMINAL_BW (72 h, time 3 day) of 222.4 g, an APTT (72 h, time 3 day) of 22.6 s and a Bas (72 h, time 3 day) of 0%. It also gave an Eos (72 h, time 3 day) of 1%, a Fbg (72 h, time 3 day) of 300.2 mg/dL and a Hb (72 h, time 3 day) of 13.5 g/dL. The Ht (72 h, time 3 day) was 40.8%, the Lym (72 h, time 3 day) was 81.6% and the MCH (72 h, time 3 day) was 20.9 pg. It also gave an MCHC (72 h, time 3 day) of 33.1%, an MCV (72 h, time 3 day) of 63 fL and a Mono (72 h, time 3 day) of 2.6%. For the same molecule, the Neu (72 h, time 3 day) was 14.2%, the PT (72 h, time 3 day) was 15.7 s and the Plat (72 h, time 3 day) was 112.4 x10_4/uL. For the same molecule, the RBC (72 h, time 3 day) was 647.2 x10_4/ul, the Ret (72 h, time 3 day) was 6.8% and the WBC (72 h, time 3 day) was 142.5 x10_2/uL. It also gave a KIDNEY_L (72 h, time 3 day) of 1 g, a KIDNEY_R (72 h, time 3 day) of 1 g and a KIDNEY_TOTAL (72 h, time 3 day) of 2 g. The LIVER (72 h, time 3 day) was 10.5 g, the A/G (72 h, time 3 day) was 1.1 and the ALP (72 h, time 3 day) was 1395.4 IU/L. The ALT (72 h, time 3 day) was 46.2 IU/L, the AST (72 h, time 3 day) was 73.8 IU/L and the BUN (72 h, time 3 day) was 17.4 mg/dL. For the same molecule, the CRE (72 h, time 3 day) was 0.2 mg/dL, the Ca (72 h, time 3 day) was 10.5 mg/dL and the Cl (72 h, time 3 day) was 106 meq/L. The DBIL (72 h, time 3 day) was 0 mg/dL, the GLC (72 h, time 3 day) was 202 mg/dL and the IP (72 h, time 3 day) was 7.2 mg/dL. For the same molecule, the K (72 h, time 3 day) was 4.3 meq/L, the LDH (72 h, time 3 day) was 188 IU/L and the Na (72 h, time 3 day) was 140.8 meq/L. For the same molecule, the PL (72 h, time 3 day) was 137.6 mg/dL, the RALB (72 h, time 3 day) was 2.9 g/dL and the TBIL (72 h, time 3 day) was 0.004 mg/dL. The TC (72 h, time 3 day) was 75 mg/dL, the TG (72 h, time 3 day) was 86.6 mg/dL and the TP (72 h, time 3 day) was 5.5 g/dL. The gamma-GTP (72 h, time 3 day) was 1.6 IU/L, the TERMINAL_BW ([…], time 7 day) was 250.2 g and the TERMINAL_BW ([…], time 14 day) was 315.5 g. For the same molecule, the TERMINAL_BW ([…], time 28 day) was 385.3 g, the APTT ([…], time 7 day) was 21.4 s and the Bas ([…], time 7 day) was 0%. It also gave an Eos ([…], time 7 day) of 0.8%, a Fbg ([…], time 7 day) of 311.2 mg/dL and a Hb ([…], time 7 day) of 13.8 g/dL. The Ht ([…], time 7 day) was 40.6%, the Lym ([…], time 7 day) was 83% and the MCH ([…], time 7 day) was 20.7 pg. The MCHC ([…], time 7 day) was 33.9%, the MCV ([…], time 7 day) was 61 fL and the Mono ([…], time 7 day) was 2%. For the same molecule, the Neu ([…], time 7 day) was 13.4%, the PT ([…], time 7 day) was 15.4 s and the Plat ([…], time 7 day) was 118.9 x10_4/uL. The RBC ([…], time 7 day) was 667 x10_4/ul, the Ret ([…], time 7 day) was 5.6% and the WBC ([…], time 7 day) was 124.9 x10_2/uL. It also gave an APTT ([…], time 14 day) of 22.9 s, a Bas ([…], time 14 day) of 0% and an Eos ([…], time 14 day) of 1%. The Fbg ([…], time 14 day) was 299.2 mg/dL, the Hb ([…], time 14 day) was 14.1 g/dL and the Ht ([…], time 14 day) was 40.4%. The Lym ([…], time 14 day) was 82.6%, the MCH ([…], time 14 day) was 20.5 pg and the MCHC ([…], time 14 day) was 34.8%. For the same molecule, the MCV ([…], time 14 day) was 58.9 fL, the Mono ([…], time 14 day) was 2.2% and the Neu ([…], time 14 day) was 14%. The PT ([…], time 14 day) was 15.6 s, the Plat ([…], time 14 day) was 118.7 x10_4/uL and the RBC ([…], time 14 day) was 686.8 x10_4/ul. The Ret ([…], time 14 day) was 5.3%, the WBC ([…], time 14 day) was 128.8 x10_2/uL and the APTT ([…], time 28 day) was 24.5 s. For the same molecule, the Bas ([…], time 28 day) was 0%, the Eos ([…], time 28 day) was 1% and the Fbg ([…], time 28 day) was 305.6 mg/dL. It also gave a Hb ([…], time 28 day) of 15.3 g/dL, a Ht ([…], time 28 day) of 43.2% and a Lym ([…], time 28 day) of 81.8%. The MCH ([…], time 28 day) was 19.6 pg, the MCHC ([…], time 28 day) was 35.3% and the MCV ([…], time 28 day) was 55.5 fL. For the same molecule, the Mono ([…], time 28 day) was 1.8%, the Neu ([…], time 28 day) was 14.2% and the PT ([…], time 28 day) was 16 s. The Plat ([…], time 28 day) was 91.2 x10_4/uL, the RBC ([…], time 28 day) was 778.2 x10_4/ul and the Ret ([…], time 28 day) was 2.8%. It also gave a WBC ([…], time 28 day) of 114.1 x10_2/uL, a KIDNEY_L ([…], time 7 day) of 1.1 g and a KIDNEY_R ([…], time 7 day) of 1.1 g. The KIDNEY_TOTAL ([…], time 7 day) was 2.2 g, the KIDNEY_L ([…], time 14 day) was 1.2 g and the KIDNEY_R ([…], time 14 day) was 1.2 g. The KIDNEY_TOTAL ([…], time 14 day) was 2.4 g, the KIDNEY_L ([…], time 28 day) was 1.3 g and the KIDNEY_R ([…], time 28 day) was 1.4 g. For the same molecule, the KIDNEY_TOTAL ([…], time 28 day) was 2.7 g, the LIVER ([…], time 7 day) was 11.5 g and the LIVER ([…], time 14 day) was 13.7 g. For the same molecule, the LIVER ([…], time 28 day) was 15.9 g, the A/G ([…], time 7 day) was 1.2 and the ALP ([…], time 7 day) was 1704.2 IU/L. It also gave an ALT ([…], time 7 day) of 37.4 IU/L, an AST ([…], time 7 day) of 68.6 IU/L and a BUN ([…], time 7 day) of 18.8 mg/dL. It also gave a CRE ([…], time 7 day) of 0.2 mg/dL, a Ca ([…], time 7 day) of 10.7 mg/dL and a Cl ([…], time 7 day) of 107.2 meq/L. It also gave a DBIL ([…], time 7 day) of 0 mg/dL, a GLC ([…], time 7 day) of 191.8 mg/dL and an IP ([…], time 7 day) of 7.1 mg/dL. For the same molecule, the K ([…], time 7 day) was 4.5 meq/L, the LDH ([…], time 7 day) was 146.4 IU/L and the Na ([…], time 7 day) was 141.6 meq/L. For the same molecule, the PL ([…], time 7 day) was 158.6 mg/dL, the RALB ([…], time 7 day) was 3 g/dL and the TBIL ([…], time 7 day) was 0.004 mg/dL. It also gave a TC ([…], time 7 day) of 83.2 mg/dL, a TG ([…], time 7 day) of 107.2 mg/dL and a TP ([…], time 7 day) of 5.4 g/dL. The gamma-GTP ([…], time 7 day) was 1.8 IU/L, the A/G ([…], time 14 day) was 1.3 and the ALP ([…], time 14 day) was 1485.6 IU/L. The ALT ([…], time 14 day) was 37 IU/L, the AST ([…], time 14 day) was 63.4 IU/L and the BUN ([…], time 14 day) was 19 mg/dL. It also gave a CRE ([…], time 14 day) of 0.2 mg/dL, a Ca ([…], time 14 day) of 10.3 mg/dL and a Cl ([…], time 14 day) of 105 meq/L. For the same molecule, the DBIL ([…], time 14 day) was 0 mg/dL, the GLC ([…], time 14 day) was 205.8 mg/dL and the IP ([…], time 14 day) was 6.9 mg/dL. For the same molecule, the K ([…], time 14 day) was 4.5 meq/L, the LDH ([…], time 14 day) was 157.8 IU/L and the Na ([…], time 14 day) was 139.2 meq/L. The PL ([…], time 14 day) was 135.6 mg/dL, the RALB ([…], time 14 day) was 3.1 g/dL and the TBIL ([…], time 14 day) was 0.006 mg/dL. It also gave a TC ([…], time 14 day) of 63.6 mg/dL, a TG ([…], time 14 day) of 135.6 mg/dL and a TP ([…], time 14 day) of 5.6 g/dL. For the same molecule, the gamma-GTP ([…], time 14 day) was 2.6 IU/L, the A/G ([…], time 28 day) was 1.2 and the ALP ([…], time 28 day) was 1102.4 IU/L. The ALT ([…], time 28 day) was 35 IU/L, the AST ([…], time 28 day) was 61.4 IU/L and the BUN ([…], time 28 day) was 19.2 mg/dL. The CRE ([…], time 28 day) was 0.2 mg/dL, the Ca ([…], time 28 day) was 10.8 mg/dL and the Cl ([…], time 28 day) was 106.8 meq/L. The DBIL ([…], time 28 day) was 0 mg/dL, the GLC ([…], time 28 day) was 202.6 mg/dL and the IP ([…], time 28 day) was 6.7 mg/dL. The K ([…], time 28 day) was 4.1 meq/L, the LDH ([…], time 28 day) was 152.6 IU/L and the Na ([…], time 28 day) was 143.2 meq/L. For the same molecule, the PL ([…], time 28 day) was 151.4 mg/dL, the RALB ([…], time 28 day) was 3.3 g/dL and the TBIL ([…], time 28 day) was 0.01 mg/dL. The TC ([…], time 28 day) was 78.2 mg/dL, the TG ([…], time 28 day) was 135.4 mg/dL and the TP ([…], time 28 day) was 5.9 g/dL. It also gave a gamma-GTP ([…], time 28 day) of 2 IU/L.
